Values after ≈ are worked out from the molar mass of the structure shown. “Also recorded” adds a separate entry of the source.
Columns and labels:
[1] = system: transgenic neutrophil fluorescent zebrafishes; assay: Anti-inflammatory effect on LPS-induced inflammatory zebrafish; type: in vivo
Procedure: (§1) LPS was used to treat normal 3 dpf transgenic neutrophil fluorescent zebrafishes in a yolk sac injection, and a zebrafish inflammation model was established.
Transgenic neutrophil fluorescent zebrafishes (3 dpf), well developed and consistent in stage on 3 days after fertilization, were picked under a microscope and placed in a six-well plate, with 30 zebrafishes being randomly picked for each well at a capacity of 3 mL in each well. A zebrafish inflammation model was established by administrating LPS in a yolk sac injection. “Embodiment 5” and “Embodiment 6” were respectively dissolved with water, wherein the concentrations were 0.28 μM, 0.83 μM and 2.5 μM, respectively. The concentration of indomethacin was 80 μM. Meanwhile, a normal control group (i.e., zebrafishes were treated with fish-farming water) and a model control group were set, and incubated in a 28° C. incubator for 3 h. 10 zebrafishes were randomly selected from each group, and observed and photographed under a fluorescence microscope, and the photos were saved. Nikon NIS-Elements D 3.10 advanced image processing software was used for image analysis, the number (N) of inflammatory neutrophils in zebrafish was calculated, and the statistical processing results were expressed as mean±SE. The statistical analysis results of the number of inflammatory neutrophils in zebrafish were used to evaluate whether “Embodiment 5” and “Embodiment 6” had significant anti-inflammatory effects on LPS-induced inflammatory zebrafish, respectively. A formula for calculating the anti-inflammatory effects of “Embodiment 5” and “Embodiment 6” was as follows: […]

[2] = system: transgenic neutrophil fluorescent zebrafishes; assay: Maximum tolerated concentration (MTC) in LPS-induced inflammation zebrafish; type: in vivo; details: for Death count / Death rate (%): n = 30; for If precipitation occurred?: fish-farming water
Source text: Transgenic neutrophil fluorescent zebrafishes were matched and propagated naturally in pairs. The age was 3 days after fertilization (3 dpf), and there was a total of 810 zebrafishes, with 30 zebrafishes per experimental group. The purposes were to determine maximum tolerated concentrations (MTC) of “Embodiment 5” and “Embodiment 6” in an LPS-induced inflammation experiment, and evaluate anti-inflammatory effects of “Embodiment 5” and “Embodiment 6” on LPS-induced inflammations.
as §1
Transgenic neutrophil fluorescent zebrafishes (3 dpf), well developed and consistent in stage on 3 days after fertilization, were picked under a microscope and placed in a six-well plate, with 30 zebrafishes being randomly picked for each well at a capacity of 3 mL in each well. A zebrafish inflammation model was established by administrating LPS in a yolk sac injection. “Embodiment 5” and “Embodiment 6” were respectively dissolved with water, wherein the concentrations were 0.625 μM, 1.25 μM, 2.5 μM, 5 μM, 10 μM, 50 μM, 100 μM and 200 μM, respectively. Meanwhile, anormal control group (i.e., zebrafishes were treated with fish-farming water) and a model control group were set, and cultured in a 28° C. incubator for 3 h, and the death of zebrafishes was then observed and recorded. The number of dead zebrafishes in each experimental group was counted, and the maximum tolerated concentrations (MTCs) of zebrafishes in “Embodiment 5” and “Embodiment 6” were determined.

physchem = details: organic solvent or mixture
[3] = system: transgenic AD mice (C57BL/6J background); assay: Nesting behaviors of AD mice; type: in vivo, mouse; details: administered from 2 months of age; tested 3 and 6 months after administration
Source text: One symptom of AD patients was the inability to take care of themselves, while nesting behaviors reflected the self-care level of the mice. At the beginning of the experiment, 10 pieces of rectangular paper were placed neatly in mouse cages in order. Normal mice would tear up pieces of paper and build nests, while mice with severe AD symptoms would not tear up pieces of paper and build nests.

[4] = system: transgenic AD mice (C57BL/6J background); assay: Light/dark box test of AD mice; type: in vivo, mouse; details: 6 months after administration
Source text: The principle of the light/dark box test is: the mice have a natural tendency to darkness; and after the mice was put into a light box, the mice would spontaneously enter a connected dark box. However, in this experiment, the dark box was equipped with an electrical stimulation mechanism, and the mice would be shocked when they entered the dark box.

[5] = system: transgenic AD mice (C57BL/6J background); assay: Water maze test of AD mice; details: 6 months after administration
Source text: • Experimental and analytical method: in this experiment, transgenic mice from APP/P Embodiment 13B were used, and background mice were C57BL/6J. […] The process of the water maze test was divided into three stages: the first stage lasted for 1 day; and in order to adapt to this stage, there was an escape platform having a diameter of 8 cm in a large pool having a diameter of 1.2 m, and there were four marks of circle, triangle, box and fork in four directions of east, west, north and south on the pool wall as hints of spatial positions. The rats were sequentially placed into transparent water along the pool wall, with the water surface 1 cm below the escape platform. The mice would easily find the escape platform, and was then rescued from the water maze after climbing onto the platform, thereby learning basic rules of the water maze. The second stage lasted for 4 days and was a training stage. The settings for the tool remained unchanged, the water surface was raised to 1 cm above the escape platform, and ink was poured to strain the water black, so that the escape platform was not visible. Every day, the mice were put into the pool from the four directions of the east, south, west and north, and rescued after successfully climbing onto the escape platform. […]

Mia paca-2 cells = assay: In-vitro killing of pancreatic cancer cells (CellTiter-Glo); type: cell-based; details: 11 small molecules, max 10 uM, 3-fold dilution
Procedure: • Experimental and analytical method: we used Mia paca-2 cells as a research object. This cell line was a pancreatic cancer cell line and was widely used in an antimicrobial susceptibility experiment. We performed the antimicrobial susceptibility experiment on 11 small molecules, with a maximum concentration of 10 uM and a 3-fold dilution, resulting in a concentration gradient of seven points. Cell viability assay was performed using CellTiter-Glo, and a dosage-response curve was plotted using GraphPad Prism. A resulting antimicrobial susceptibility curve was shown in the figure below. • Results: the antimicrobial susceptibility curve was shown in FIG. 53, where a lower IC50 value indicates a higher sensitivity to the small molecule.

[6] = system: SMPs (submitochondrial particles); assay: Catalytic activity of SMPs (NADH dehydrogenation); type: biochemical; details: Rotenone 2 μM, 10 min, 500 μM NADH
Procedure: Experiment 9. Detection of Small Molecule Compounds that Facilitated the Catalytic Activity of SMPs (Submitochondrial Particles) • Experimental and analytical method: HEK293 cells were cultured at 5% CO2, and purified to obtain mitocondria, which were sonicated to obtain SMPs (submitochondrial granules). SMPs were incubated with different concentrations of small molecule compounds or a control drug (Rotenone, 2 μM) for 10 min, and then added with 500 μM of NADH. The absorbance of NADH was detected by an Enspire multi-mode microplate reader, an enzyme activity curve with the decrease of NADH concentration catalyzed by SMPs was plotted, and a maximum reaction rate of SMPs was calculated by linear fitting. The addition of 1 mM FeCN to a normal NADH catalytic system of SMPs could cause an electronic pathway from NADH to coenzyme Q to be short-circuited.

[7] = concentration 0.625 (table head μg/mL; text μM)
[8] = concentration 0.625 (table head μg/mL; text μM), 3 h
[9] = concentration 1.25 (table head μg/mL; text μM)
[10] = concentration 1.25 (table head μg/mL; text μM), 3 h
[11] = concentration 2.5 (table head μg/mL; text μM)
[12] = concentration 2.5 (table head μg/mL; text μM), 3 h
[13] = concentration 5 (table head μg/mL; text μM), 3 h
[14] = concentration 10 (table head μg/mL; text μM), 3 h
[15] = concentration 50 (table head μg/mL; text μM), 3 h
[16] = concentration 100 (table head μg/mL; text μM), 3 h
[17] = concentration 200 (table head μg/mL; text μM), 3 h

## C[C@H]1CC[C@@]2(OC1)O[C@H]1C[C@H]3[C@@H]4CC[C@@H]5CC(NC(=O)CC(=O)N6CCN(C)CC6)CC[C@]5(C)[C@H]4CC[C@]3(C)[C@H]1[C@@H]2C (stereo partly drawn) [Embodiment 5]
[1]; 0.28 μM
  Inflammation resolution (%) / anti-inflammatory effect: 33%
[1]; 0.83 μM
  Inflammation resolution (%) / anti-inflammatory effect: 61%
[1]; 2.5 μM
  Inflammation resolution (%) / anti-inflammatory effect: 67%
[1]; 0.28 to 2.5 μM, P<0.001 vs model control
  anti-inflammatory effects on inflammatory zebrafish (in words): obvious anti-inflammatory effects
[2]; [7]
  Toxicity: No obvious toxicity
  If precipitation occurred?: No
[2]; [8]
  Death count: 0
  Death rate (%): 0%
[2]; [9]
  Toxicity: No obvious toxicity
  If precipitation occurred?: No
[2]; [10]
  Death count: 0
  Death rate (%): 0%
[2]; [11]
  Toxicity: normal state; also recorded: No obvious toxicity
  If precipitation occurred?: not precipitated and No
[2]; [12]
  Death count: 0
  Death rate (%): 0%
[2]; [13]
  Death count: 3
  Death rate (%): 10%
[2]; concentration 5 (table head μg/mL; text μM)
  If precipitation occurred?: No
[2]; [14]
  Death count: 30
  Death rate (%): 100%
[2]; concentration 10 (table head μg/mL; text μM)
  If precipitation occurred?: No
[2]; [15]
  Death count: 30
  Death rate (%): 100%
[2]; concentration 50 (table head μg/mL; text μM)
  If precipitation occurred?: No
[2]; [16]
  Death count: 30
  Death rate (%): 100%
[2]; concentration 100 (table head μg/mL; text μM)
  If precipitation occurred?: No
[2]; [17]
  Death count: 30
  Death rate (%): 100%
[2]; concentration 200 (table head μg/mL; text μM)
  If precipitation occurred?: No
[2]; in the evaluation of the anti-inflammatory effect, LPS zebrafish, 3 h
  maximum tolerated concentration (MTC): 2.5 µM
physchem
  solubility: 20 mM (≈ 11.7 mg/mL)

## CCN1CCN(C2CCN(C(=O)CC(=O)NC3CC[C@]4(C)C5CC[C@]6(C)[C@@H]7[C@H](C[C@H]6[C@@H]5CC[C@@H]4C3)O[C@]3(CC[C@H](C)CO3)[C@H]7C)CC2)CC1 (stereo partly drawn) [Embodiment 25]
[3]
  nesting behavior score: most obvious
[4]
  memory on electric shock (latency before entering the dark box): could effectively enhance the memory
[5]
  dwell time in a target quadrant: most obvious
  number of platform shuttles: most obvious

## C[C@H]1CC[C@@]2(OC1)O[C@H]1C[C@H]3[C@@H]4CC[C@@H]5C[C@@H](NC(=O)CC(=O)N6CCN(C7CCN(C)CC7)CC6)CC[C@]5(C)C4CC[C@]3(C)[C@H]1[C@@H]2C (stereo partly drawn) [Embodiment 26A]
Mia paca-2 cells
  sensitivity of Mia paca-2 cells (IC50 comparison): highest sensitivity

## C=C(C)[C@H]1Cc2c(ccc3c2O[C@@H]2COc4cc(OC)c(OC)cc4[C@@H]2C3=O)O1 [Rotenone]
[6]
  dehydrogenation reaction of NADH by SMPs: completely blocked
